Assay results from patent publication US20160015036A1, “Methods and apparatuses related to pre- and post-dip teat treatment in milking facilities” (Aqua Access LLC, priority 2013, published 2016).

How the values were obtained:
E. coli = assay: Bacteriocidal activity tests of colloidal disinfectant mix at low/intermediate/high FAC, E. coli; format: cell-based, Escherichia coli; conditions: 200-300 ppm FAC in viscous post-dip solutions; 30 seconds
Procedure: (§1) FIG. 4 is an illustration of a test for bacteriocidal activity.
(§2) Colloid-based disinfectant mixing procedures were established as follows. Step 1—Mix 2 g GA into 90 mL of water, leave with constant slow mixing for 1 hour. Step 2—Generate chlorine-based oxidant by salt brine electrolysis. Measure FAC concentration by the Hach DPD technique. Step 3—Dilute free chlorine solution from fresh electrolyzed brine solution. Final FAC concentration to be 200 ppm or 300 ppm. Step 4—Add 1 g of pure lanolin (with no additives), fill up the volume to 100 mL. Mix with slow stirring or on a rotary carousel for another hour. If needed, add Brilliant Blue (food-grade) dye during the last mixing. Ready. Store at ambient temperature for up to 48 hours or 72 hours.
(§3) Also, 400 ppm FAC in the disinfectant colloid mix causes 7-log inactivation of E. coli, and 200 ppm FAC is sufficient for 6-log inactivation of S. aures. Higher FAC concentrations can be useful in pre-dip solutions for teat wash. 200-300 ppm FAC, which holds for a long time upon storage, can be sufficient for post-dip solutions. Note that the tests were performed under controlled laboratory conditions. Field test data might support the data, or might indicate that higher FAC concentrations are necessary.

E. coli cells = conditions: 100 ppm hypochlorite applied for 1 min.; cited from earlier work
S. aures = assay: Bacteriocidal activity tests of colloidal disinfectant mix at low/intermediate/high FAC, S. aureus; format: cell-based, Staphylococcus aureus; conditions: 200-300 ppm FAC in viscous post-dip solutions; 30 seconds
Procedure: as §1, §2, §3

OCl [sodium hypochlorite]
log inactivation of Escherichia coli (E. coli): 6 log | E. coli cells killed (E. coli cells): 10^6 cells | log inactivation of Staphylococcus aureus (S. aures): 6 log
